Laboratory results taken from PMC8966664 (Frontiers in Pharmacology, 2022).

How the values were obtained:
rat CYP3A1 = test: Enzymatic kinetic study with nifedipine in rat liver microsomes; format: biochemical
Protocol: The mixture was pre-incubated at 37°C for 15 min. […] The supernatant was filtered through a 0.22 µm membrane filter before the LC-MS/MS analysis.
Data are expressed as mean ± SD. The Student’s t test was used for the comparison between two groups. The one-way ANOVA followed with a post hoc Bonferroni’s multiple comparison test was used for the comparison among multiple groups. Toxicokinetic parameters were calculated by noncompartmental methods using WinNonlin version 4.0 (Pharsight, Mountain View, CA, United States). The enzyme kinetic parameters were estimated from the best fit line using least-squares linear regression of the inverse substrate concentration versus the inverse velocity (Lineweaver-Burk plots), and the mean values were used to calculate the Km and Vmax. […] The statistical significance was set as ^* p < 0.05, ^** p < 0.01 or ^*** p < 0.001.

RTS-induced liver injury = test: Serum ALT, hepatic MDA and GSH in RTS-induced liver injury; format: in vivo, Sprague Dawley rats; details: rats
Protocol: EX and GA were dissolved in distilled water at 37°C for oral administration with the dosage of EX and GA as 500 mg/kg and 50 mg/kg. […] RTS was given following the last dose of distilled water/GA/EX. Detailed dosage regimens are described in Supplementary Figure S2. All rats were sacrificed at 48 h after the last dosing. Serum and liver samples were collected and stored at −80°C until use.
The serum alanine transaminase (ALT) level was measured by a kit obtained from Sigma-Aldrich Chemical Co. (St. Louis, MO, United States). The total bilirubin level was measured by the QuantiChromTM Bilirubin Assay kit according to the manufacturer’s instructions (BioAssay Systems, Hayward, CA, United States). Hepatic malondialdehyde (MDA) level was measured using a kit obtained from Nanjing Jiancheng Bioengineering Institute (Nanjing, China). Total GSH content in the liver was measured following a standard spectrophotometric method using Ellaman’s reagent.

[1] = substance alone (EX/GA single and multiple administrations; RTS single dose), 48 h

CC1(C)[C@@H](O)CC[C@]2(C)[C@H]3C(=O)C=C4[C@@H]5C[C@@](C)(C(=O)O)CC[C@]5(C)CC[C@@]4(C)[C@]3(C)CC[C@@H]12 [GA, 18β-glycyrrhetinic acid]
Lineweaver-Burk Slope (rat CYP3A1; GA 10 µM): 1.424±0.040 | Lineweaver-Burk Y-intercept when X=0.0 (rat CYP3A1; GA 10 µM): 0.174±0.017 | Vmax of nifedipine metabolism (rat CYP3A1; GA 10 µM): 6.326±0.079 nmol/min/mg protein | Lineweaver-Burk Slope (rat CYP3A1; GA 25 µM): 2.671±0.041 | Lineweaver-Burk Y-intercept when X=0.0 (rat CYP3A1; GA 25 µM): 0.144±0.018 | Vmax of nifedipine metabolism (rat CYP3A1; GA 25 µM): 6.586±0.083 nmol/min/mg protein | Lineweaver-Burk Slope (rat CYP3A1; GA 50 µM): 4.916±0.064 | Lineweaver-Burk Y-intercept when X=0.0 (rat CYP3A1; GA 50 µM): 0.137±0.028 | Vmax of nifedipine metabolism (rat CYP3A1; GA 50 µM): 6.473±0.146 nmol/min/mg protein | RTS-induced hepatic GSH elevation (RTS-induced liver injury; EX or GA treatment + RTS, especially multiple dosage regimens): attenuated | RTS-induced hepatic MDA elevation (RTS-induced liver injury; multiple doses + RTS 40 mg/kg): significantly attenuated | RTS-induced serum ALT elevation (RTS-induced liver injury; multiple doses + RTS 40 mg/kg): significantly attenuated | RTS-induced hepatic MDA elevation (RTS-induced liver injury; single dose + RTS 40 mg/kg): significantly reduced | RTS-induced serum ALT elevation (RTS-induced liver injury; single dose + RTS 40 mg/kg): significantly reduced | hepatic MDA level compared with vehicle (RTS-induced liver injury; [1]): unchanged | serum ALT level compared with vehicle (RTS-induced liver injury; [1]): unchanged
